Laboratory results: patent publication US7605174B2, “Indane derivatives as modulators of ion channels” (Vertex Pharmaceuticals Incorporated, priority 2005, dated 2009)

target: T1, NaV1.3 (Homo sapiens, UniProt Q9NY46); experiment: not given; conditions: read-out: TTX IC50; cited from earlier work
Target sequence in this assay (Q9NY46 whole entry, looked up): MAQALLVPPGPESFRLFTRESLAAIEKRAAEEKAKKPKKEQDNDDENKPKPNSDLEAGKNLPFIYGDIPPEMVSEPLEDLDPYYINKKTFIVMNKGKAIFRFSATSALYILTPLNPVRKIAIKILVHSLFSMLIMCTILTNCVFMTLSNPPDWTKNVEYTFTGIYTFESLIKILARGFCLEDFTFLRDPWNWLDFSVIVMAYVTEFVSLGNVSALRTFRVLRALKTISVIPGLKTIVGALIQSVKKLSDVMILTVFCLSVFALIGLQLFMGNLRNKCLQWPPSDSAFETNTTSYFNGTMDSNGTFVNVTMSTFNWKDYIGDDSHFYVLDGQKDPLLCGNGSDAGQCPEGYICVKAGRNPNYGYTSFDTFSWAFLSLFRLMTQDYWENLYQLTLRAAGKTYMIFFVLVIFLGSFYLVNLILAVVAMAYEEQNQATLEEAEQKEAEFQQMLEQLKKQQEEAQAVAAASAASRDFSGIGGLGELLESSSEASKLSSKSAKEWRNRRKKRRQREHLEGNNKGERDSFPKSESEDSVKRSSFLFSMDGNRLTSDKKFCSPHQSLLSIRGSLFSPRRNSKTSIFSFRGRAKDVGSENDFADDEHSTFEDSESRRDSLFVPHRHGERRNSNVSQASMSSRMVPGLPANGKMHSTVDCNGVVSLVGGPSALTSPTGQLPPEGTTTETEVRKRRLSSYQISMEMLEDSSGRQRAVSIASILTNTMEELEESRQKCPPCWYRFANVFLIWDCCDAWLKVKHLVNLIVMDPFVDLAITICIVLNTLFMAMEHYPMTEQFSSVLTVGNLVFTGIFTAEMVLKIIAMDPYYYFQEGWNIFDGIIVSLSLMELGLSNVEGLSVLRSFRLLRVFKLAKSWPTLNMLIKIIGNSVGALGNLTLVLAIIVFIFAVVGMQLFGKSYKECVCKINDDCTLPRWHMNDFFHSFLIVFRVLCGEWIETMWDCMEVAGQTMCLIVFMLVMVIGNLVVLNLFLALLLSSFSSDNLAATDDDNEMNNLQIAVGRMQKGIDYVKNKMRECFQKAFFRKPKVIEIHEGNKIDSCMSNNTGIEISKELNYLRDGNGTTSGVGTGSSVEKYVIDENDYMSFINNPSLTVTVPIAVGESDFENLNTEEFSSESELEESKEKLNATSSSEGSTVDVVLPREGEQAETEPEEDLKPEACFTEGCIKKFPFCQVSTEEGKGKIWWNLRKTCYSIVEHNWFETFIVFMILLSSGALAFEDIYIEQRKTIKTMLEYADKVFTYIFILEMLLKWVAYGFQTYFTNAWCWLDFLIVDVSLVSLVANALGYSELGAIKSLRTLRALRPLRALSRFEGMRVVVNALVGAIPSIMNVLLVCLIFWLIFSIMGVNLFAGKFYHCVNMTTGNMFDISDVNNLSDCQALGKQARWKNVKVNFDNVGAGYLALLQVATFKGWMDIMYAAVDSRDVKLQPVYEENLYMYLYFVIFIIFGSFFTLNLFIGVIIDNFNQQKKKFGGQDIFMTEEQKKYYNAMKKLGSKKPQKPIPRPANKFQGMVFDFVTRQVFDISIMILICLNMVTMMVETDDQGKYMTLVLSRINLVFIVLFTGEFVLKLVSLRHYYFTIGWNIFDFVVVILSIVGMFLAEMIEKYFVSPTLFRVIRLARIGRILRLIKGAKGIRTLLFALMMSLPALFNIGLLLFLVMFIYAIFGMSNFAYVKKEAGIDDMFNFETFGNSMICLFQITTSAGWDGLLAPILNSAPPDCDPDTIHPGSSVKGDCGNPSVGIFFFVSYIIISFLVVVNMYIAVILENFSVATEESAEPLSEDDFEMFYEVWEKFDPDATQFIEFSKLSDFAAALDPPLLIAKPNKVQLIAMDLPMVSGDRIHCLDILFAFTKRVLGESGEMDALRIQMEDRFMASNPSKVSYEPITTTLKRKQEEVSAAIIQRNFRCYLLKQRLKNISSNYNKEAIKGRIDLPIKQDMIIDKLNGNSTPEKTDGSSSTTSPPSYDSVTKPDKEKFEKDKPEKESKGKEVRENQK

In the case of NC1=N[C@H](O)[C@H]2[C@H]3O[C@]4(O)O[C@@H]([C@@H](O)[C@@]2(N1)[C@@H]4O)[C@]3(O)CO [TTX, tetrodotoxin], the IC50 is given as 15 nM.

system: not given; experiment: not given; conditions: in vivo; cited from earlier work

In the case of NCC1(CC(=O)O)CCCCC1 [Gabapentin], the “patients in whom the drug works” value is listed as 60%.

target: T1, NaV1.3; experiment: Activity against NaV 1.3 channel (optical membrane potential assay, electrical stimulation); format: cell-based; parameters: expressed in transfected cells; host or cells: HEK293; conditions: not given
Experimental: Compounds of the invention are useful as antagonists of voltage-gated sodium ion channels. Antagonist properties of test compounds were assessed as follows. Cells expressing the NaV of interest were placed into microtiter plates. After an incubation period, the cells were stained with fluorescent dyes sensitive to the transmembrane potential. The test compounds were added to the microtiter plate. The cells were stimulated with either a chemical or electrical means to evoke a NaV dependent membrane potential change from unblocked channels, which was detected and measured with trans-membrane potential-sensitive dyes. Antagonists were detected as a decreased membrane potential response to the stimulus. The optical membrane potential assay utilized voltage-sensitive FRET sensors described by Gonzalez and Tsien (See, Gonzalez, J. E. and R. Y. Tsien (1995) “Voltage sensing by fluorescence resonance energy transfer in single cells” Biophys J 69(4): 1272-80, and Gonzalez, J. E. and R. Y. Tsien (1997) “Improved indicators of cell membrane potential that use fluorescence resonance energy transfer” Chem Biol 4(4): 269-77) in combination with instrumentation for measuring fluorescence changes such as the Voltage/Ion Probe Reader (VIPR®) (See, Gonzalez, J. E., K. Oades, et al. (1999) “Cell-based assays and instrumentation for screening ion-channel targets” Drug Discov Today 4(9): 431-439).
The following is an example of how NaV1.3 inhibition activity is measured using the optical membrane potential method#2. Other subtypes are performed in an analogous mode in a cell line expressing the NaV of interest.
HEK293 cells stably expressing NaV1.3 are plated into 96-well microtiter plates. After an appropriate incubation period, the cells are stained with the voltage sensitive dyes CC2-DMPE/DiSBAC2(3) as follows.
2×CC2-DMPE=20 μM CC2-DMPE: 10 mM CC2-DMPE is vortexed with an equivalent volume of 10% pluronic, followed by vortexing in required amount of HBSS containing 10 mM HEPES. Each cell plate will require 5 mL of 2×CC2-DMPE. 50 μL of 2×CC2-DMPE is to wells containing washed cells, resulting in a 10 μM final staining concentration. The cells are stained for 30 minutes in the dark at RT.
2×DISBAC2(3) with ABSC1=6 μM DISBAC2(3) and 1 mM ABSC1: The required amount of 10 mM DISBAC2(3) is added to a 50 ml conical tube and mixed with 1 μL 10% pluronic for each mL of solution to be made and vortexed together. Then HBSS/HEPES is added to make up 2× solution. Finally, the ABSC1 is added.
The 2×DiSBAC2(3) solution can be used to solvate compound plates. Note that compound plates are made at 2× drug concentration. Wash stained plate again, leaving residual volume of 50 μL. Add 50 uL/well of the 2×DiSBAC2(3) w/ABSC1. Stain for 30 minutes in the dark at RT.
The electrical stimulation instrument and methods of use are described in ION Channel Assay Methods PCT/US01/21652, herein incorporated by reference. The instrument comprises a microtiter plate handler, an optical system for exciting the coumarin dye while simultaneously recording the coumarin and oxonol emissions, a waveform generator, a current- or voltage-controlled amplifier, and a device for inserting electrodes in well. Under integrated computer control, this instrument passes user-programmed electrical stimulus protocols to cells within the wells of the microtiter plate.
• 1. Insert or use electrodes into each well to be assayed. • 2. Use the current-controlled amplifier to deliver stimulation wave pulses for 3 s. Two seconds of pre-stimulus recording are performed to obtain the un-stimulated intensities. Five seconds of post-stimulation recording are performed to examine the relaxation to the resting state.
Data are analyzed and reported as normalized ratios of background-subtracted emission intensities measured in the 460 nm and 580 nm channels. Background intensities are then subtracted from each assay channel. […]
Target sequence in this assay (Q9NY46 whole entry): as the sequence (Q9NY46 whole entry, looked up) above

O=C(NC1Cc2ccc(S(=O)(=O)Nc3nccs3)cc2C1)Oc1cccc(C(F)(F)F)c1 (stereo not shown) [Compound 1] and O=C(NC1Cc2ccc(S(=O)(=O)Nc3nccs3)cc2C1)Oc1ccc(Cl)cc1 (stereo not shown) [Compound 11] cannot be ordered by IC50: under 2000 nM for the first, under 2000 nM for the second.

same assay, conditions: NaV 1.3 channel; read-out: IC50

First: O=C(COc1ccc(Cl)cc1)NC1Cc2ccc(S(=O)(=O)Nc3nccs3)cc2C1 (stereo not shown) [Compound 2]
Second: O=C(COc1ccc(F)cc1)NC1Cc2ccc(S(=O)(=O)Nc3nccs3)cc2C1 (stereo not shown) [Compound 13]
The IC50 of the first is lower: under 2000 nM for the first, 2000 to 5000 nM for the second. The first is the more potent here.

O=C(NC1Cc2ccc(S(=O)(=O)Nc3nccs3)cc2C1)c1cc(F)ccc1F (stereo not shown) [Compound 3] and O=C(NC1Cc2ccc(S(=O)(=O)Nc3nccs3)cc2C1)c1ccccc1F (stereo not shown) [Compound 14] cannot be ordered by IC50: over 5000 nM for the first, over 5000 nM for the second.

O=C(CCn1ccc2cc(Cl)ccc21)NC1Cc2ccc(S(=O)(=O)Nc3nccs3)cc2C1 (stereo not shown) [Compound 4, 3-(5-Chloro-indol-1-yl)-N-[5-(thiazol-2-ylsulfamoyl)-indan-2-yl]-propionamide] and O=C(COc1cccc(Cl)c1)NC1Cc2ccc(S(=O)(=O)Nc3nccs3)cc2C1 (stereo not shown) [Compound 16, 2-(3-Chloro-phenoxy)-N-[5-(thiazol-2-ylsulfamoyl)-indan-2-yl]-acetamide] cannot be ordered by IC50: under 2000 nM for the first, under 2000 nM for the second.

Going from O=C(COc1ccc(F)c(Cl)c1)NC1Cc2ccc(S(=O)(=O)Nc3nccs3)cc2C1 (stereo not shown) [Compound 5] to O=C(COc1ccccc1)NC1Cc2ccc(S(=O)(=O)Nc3nccs3)cc2C1 (stereo not shown) [Compound 9], the IC50 rises from under 2000 nM to over 5000 nM. The first is the more potent here.

O=C(NC1Cc2ccc(S(=O)(=O)Nc3nccs3)cc2C1)c1ccc(F)cc1 (stereo not shown) [Compound 6, 4-Fluoro-N-[5-(thiazol-2-ylsulfamoyl)-indan-2-yl]-benzamide] and O=C(NC1Cc2ccc(S(=O)(=O)Nc3nccs3)cc2C1)c1ccc(C(F)(F)F)cc1 (stereo not shown) [Compound 10] cannot be ordered by IC50: over 5000 nM for the first, over 5000 nM for the second.

First: O=C(NC1Cc2ccc(S(=O)(=O)Nc3nccs3)cc2C1)c1c(F)cc(F)cc1F (stereo not shown) [Compound 7]
Second: O=C(NC1Cc2ccc(S(=O)(=O)Nc3nccs3)cc2C1)c1ccc(Cl)c(Cl)c1 (stereo not shown) [Compound 8]
The IC50 of the first is higher: over 5000 nM for the first, 2000 to 5000 nM for the second.

First: CC(C)(C)c1ccc(OCC(=O)NC2Cc3ccc(S(=O)(=O)Nc4nccs4)cc3C2)cc1 (stereo not shown) [Compound 12]
Second: O=C(CCOc1ccccc1)NC1Cc2ccc(S(=O)(=O)Nc3nccs3)cc2C1 (stereo not shown) [Compound 15]
The IC50 of the first is lower: under 2000 nM for the first, over 5000 nM for the second.

Work on CC(C(=O)NC1Cc2ccc(S(=O)(=O)Nc3nccs3)cc2C1)n1ccc2ccccc21 (stereo not shown) [Compound 17, 2-Indol-1-yl-N-[5-(thiazol-2-ylsulfamoyl)-indan-2-yl]-propionamide] yielded an IC50 of 2000 to 5000 nM.
